“Also recorded” adds a separate entry of the source.
Legend:
tyrosinase [1] = biological target: T1, tyrosinase (Agaricus bisporus, UniProt C7FF04); type: biochemical, mushroom
Target sequence in this assay (C7FF04 2-392): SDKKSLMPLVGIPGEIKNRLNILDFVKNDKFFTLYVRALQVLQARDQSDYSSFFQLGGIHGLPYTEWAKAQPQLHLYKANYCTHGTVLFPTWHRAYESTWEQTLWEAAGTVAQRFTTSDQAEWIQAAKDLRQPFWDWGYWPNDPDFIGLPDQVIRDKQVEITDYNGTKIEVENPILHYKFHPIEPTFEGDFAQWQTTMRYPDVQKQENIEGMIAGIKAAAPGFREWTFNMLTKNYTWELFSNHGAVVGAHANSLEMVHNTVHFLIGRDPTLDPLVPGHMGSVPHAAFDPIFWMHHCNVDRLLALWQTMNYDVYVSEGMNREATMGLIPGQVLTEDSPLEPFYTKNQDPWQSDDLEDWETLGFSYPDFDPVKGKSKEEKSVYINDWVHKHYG

Cell viability assay = type: cell-based; conditions: human, HEK-293 cells
tyrosinase [2] = biological target: T1, tyrosinase; assay: Fluorescence spectrum quenching of tyrosinase; type: binding, mushroom
Target sequence in this assay (C7FF04 2-392): as above

tyrosinase [3] = biological target: T1, tyrosinase; assay: ANS-binding fluorescence spectrum quenching; parameters: species or system mushroom; conditions: 6j 0–59.41 μM
Target sequence in this assay (C7FF04 1-392): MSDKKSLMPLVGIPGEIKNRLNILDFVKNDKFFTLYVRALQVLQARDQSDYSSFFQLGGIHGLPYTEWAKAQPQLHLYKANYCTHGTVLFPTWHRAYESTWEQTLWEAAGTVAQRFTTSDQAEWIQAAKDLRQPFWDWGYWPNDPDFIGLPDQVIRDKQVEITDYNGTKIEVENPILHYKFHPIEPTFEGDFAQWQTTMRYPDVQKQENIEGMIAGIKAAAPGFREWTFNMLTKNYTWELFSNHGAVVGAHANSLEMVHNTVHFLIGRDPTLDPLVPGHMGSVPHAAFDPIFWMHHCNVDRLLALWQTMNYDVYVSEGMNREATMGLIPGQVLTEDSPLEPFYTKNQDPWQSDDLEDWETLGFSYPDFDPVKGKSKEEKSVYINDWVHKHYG

tyrosinase [4] = biological target: T1, tyrosinase; conditions: Lineweaver-Burk plots; Vmax decreased, Km unchanged
Target sequence in this assay (C7FF04 2-392): as the sequence (C7FF04 2-392) above

fresh-cut apple slices = assay: Anti-browning experiment with fresh-cut apple slices; conditions: apple slices dipped 5 min, stored at 4 °C; compared with kojic acid
[5] = plot of Lg[(F0−F)/F] against Lg[Q]

Cc1cc(C=O)cc(C)c1OCc1cc(=O)c(O)co1 [6h]
Inhibitory activity against tyrosinase (in words) (tyrosinase [1]): relatively lower inhibitory activity

COc1cccc(C=O)c1OCc1cc(=O)c(O)co1 [6g]
Inhibitory activity against tyrosinase (in words) (tyrosinase [1]): relatively lower inhibitory activity

CCOc1cccc(C=O)c1OCc1cc(=O)c(O)co1 [6i]
Inhibitory activity against tyrosinase (in words) (tyrosinase [1]): relatively lower inhibitory activity

COc1cc(C=O)cc(OC)c1OCc1cc(=O)c(O)co1 [6c]
Inhibitory activity against tyrosinase (in words) (tyrosinase [1]): relatively lower inhibitory activity

COc1cc(C=O)cc(Br)c1OCc1cc(=O)c(O)co1 [6k]
Inhibitory activity against tyrosinase (in words) (tyrosinase [1]): relatively lower inhibitory activity

O=Cc1ccc(OCc2cc(=O)c(O)co2)cc1F [6j]
viability at 24 h, 1 µM (Cell viability assay): 97.1 ± 2.49% | viability at 24 h, 4 µM (Cell viability assay): 106 ± 8.83% | viability at 24 h, 16 µM (Cell viability assay): 102 ± 10.1% | viability at 24 h, 64 µM (Cell viability assay): 105 ± 7.27% | viability at 24 h, 256 µM (Cell viability assay): 88.6 ± 3.61% | Anti-tyrosinase activity relative to the positive control kojic acid (tyrosinase [1]; ratio of IC50 values): nine folds more active | Type of quenching (tyrosinase [2]; Stern-Volmer analysis): static quenching | Ksv (Stern-Volmer quenching constant) (tyrosinase [2]; excitation 280 nm, 6j 4.99–24.79 μM): 7040 M⁻¹ | Ka (binding constant) (tyrosinase [2]; [5]): 28900 M⁻¹ | n (binding sites) (tyrosinase [2]; [5]): 1.24 | Kq (biomolecular quenching constant) (tyrosinase [2]; τ0 10^−8 s): 7.04e+11 M⁻¹ s⁻¹ | ANS-binding fluorescence: maximum emission peak wavelength and intensity (tyrosinase [3]): did not present an obvious change | Inhibition type (tyrosinase [4]): noncompetitive inhibitor | Anti-browning effect (L*, ΔE, visual assessment) (fresh-cut apple slices): could delay the enzymatic browning of fresh-cut apples; also recorded: stronger anti-browning effect than kojic acid
